Assay results as given in patent US4315022A, “Terminal amino prostaglandin analogues” (Beecham Group Limited, priority 1979, dated 1982).

Tests used:
[1] = test system: 5-hydroxytryptamine induced bronchoconstriction; experiment: Inhibition of 5-hydroxytryptamine induced bronchoconstriction in anaesthetised, artificially respired guinea pig (Konzett-Rossler preparation); type: in vivo; settings: Cavia porcellus, intravenous
Procedure: 1. The compounds were examined for their ability to inhibit 5-hydroxytryptamine induced bronchoconstriction in the anaesthetised, artificially respired guinea pig (Konzett-Rossler preparation). The compounds were administered intravenously.

[2] = test system: bronchoconstriction induced by an histamine aerosol; experiment: Protection of conscious guinea pigs against bronchoconstriction induced by histamine aerosol (Herxheimer test); type: in vivo, guinea pig; settings: 10 μg/ml, 2 minutes after dosing
Procedure: 2. The compounds were examined for their ability to protect conscious guinea pigs against bronchoconstriction induced by an histamine aerosol (Herxheimer test). In these experiments the compounds were administered by aerosol.

`CCCCCCC(C)(O)CCN1C(=O)N(C)C(=O)C1CCCCCCCN(CC(=O)OC)CC(=O)OC` (stereo not drawn) [Compound 10, 1-(3'-hydroxy-3'-methyl-n-nonyl)-3-methyl-5-{7'-[N,N-bis(methoxycarbonylmethyl)amino]-n-heptyl}hydantoin] was tested, and the ED50 [1] was 0.0805 mg/kg.
`CCCCCCC(C)(O)CCN1C(=O)N(C)C(=O)C1CCCCCCCNCCC(=O)OC` (stereo not drawn) [Compound 5, 1-(3'-hydroxy-3'-methyl-n-nonyl)-3-methyl-5-(7"-(2'''-methoxycarbonylethyl)amino-n-heptyl) hydantoin] gave an ED50 [1] of 0.095 mg/kg.
In the case of `CCCCCCC(C)(O)CCN1C(=O)N(C)C(=O)C1CCCCCCC(N)=O` (stereo not drawn) [Compound 3, 1-(3'-hydroxy-3'-methyl-n-nonyl)-3-methyl-5-(6"-amidoyl-n-hexyl) hydantoin], the “increase in pre-convulsive coughing time” value [2] was 107% and the ED50 [1] was 0.108 mg/kg.
With `CCCCCCC(C)(O)CCN1C(=O)N(C)C(=O)C1CCCCCCC(N)=NO` (stereo not drawn) [Compound 2, 1-(3'-hydroxy-3'-methyl-n-nonyl)-3-methyl-5-(6"-amidoxyl-n-hexyl)-hydantoin] the “increase in pre-convulsive coughing time” value [2] was 47.5% and the ED50 [1] was 0.032 mg/kg.
For `CCCCCCC(C)(O)CCN1C(=O)N(C)C(=O)C1CCCCCCCNCC(=O)OC` (stereo not drawn) [Compound 9, 1-(3'-hydroxy-3'-methyl-n-nonyl)-3-methyl-5-5-[7'-(N-methoxycarbonylmethyl)amino-n-heptyl]-hydantoin], the ED50 [1] was 0.066 mg/kg.
`CCCCCCC(C)(O)CCN1C(=O)N(C)C(=O)C1CCCCCCCN(CCC(=O)OC)CCC(=O)OC` (stereo not drawn) [Compound 6] was tested, and the ED50 [1] was 0.079 mg/kg.
`CCCCCCC(C)(O)CCN1C(=O)N(C)C(=O)C1CCCCCCCN` (stereo not drawn) [Compound 1, 1-(3'-hydroxy-3'-methyl-n-nonyl)-3-methyl-5-(7"-amino-n-heptyl)-hydantoin] was tested, and the ED50 [1] was 0.0023 mg/kg.
